*1 amine or outer side, *2 acyl side, *3 side chain or, on linkers, in order; H or OH if unused. Where a SMILES comes first, the peptide text is derived from it. [ ]: non-standard residue; d: D form. The star is where a group is joined. X1 = CC[C@]1(O)C[C@H]2CN(CCc3c([nH]c4ccccc34)[C@@](C(=O)OC)(c3cc4c(cc3OC)N(C)[C@H]3[C@@](O)(C(=O)NNC(=O)OCCS*)[C@H](O)[C@]5(CC)C=CCN6CC[C@]43[C@@H]65)C2)C1; Nle(3R-OH,4S-OH,5R-OH,6-OH) = N[C@H](C(=O)O)[C@@H](O)[C@H](O)[C@H](O)CO; Pteroyl = Nc1nc2ncc(CNc3ccc(C(=O)*)cc3)nc2c(=O)[nH]1; γGlu = O=C(O)[C@H](CCC(=O)[*:2])N[*:1]
Columns and labels:
[1] = rat, in vivo
Description: Comparison of Bile Clearance (% ID) of unconjugated drug, drug conjugate lacking a hydrophilic spacer linker, and conjugates described herein.

[2] = tested on: folate receptor-positive KB cells; type: cell-based; details: excess folic acid
Protocol: Inhibition of Cellular DNA Synthesis. The compounds described herein were evaluated using an in vitro cytotoxicity assay that predicts the ability of the drug to inhibit the growth of folate receptor-positive KB cells. The compounds were comprised of folate linked to a respective chemotherapeutic drug, as prepared according to the protocols described herein. […] The cells were then rinsed once with fresh culture medium and incubated in fresh culture medium for 72 hours at 37° C. Cell viability was assessed using a ^3H-thymidine incorporation assay.
(§1) In Vitro Concentration-Dependent Cytotoxic Activity. Cells were heavily seeded in 24-well Falcon plates and allowed to form nearly confluent monolayers overnight. Thirty minutes prior to the addition of test article, spent medium was aspirated from all wells and replaced with fresh folate-free RPMI (FFRPMI). […] Treated cells were pulsed for 2 h at 37° C., rinsed 4 times with 0.5 mL of media, and then chased in 1 mL of fresh media up to 70 h. Spent media was aspirated from all wells and replaced with fresh media containing 5 μCi/mL ^3H-thymidine. Following a further 2 h 37° C. incubation, cells were washed 3 times with 0.5 mL of PBS and then treated with 0.5 mL of ice-cold 5% trichloroacetic acid per well. After 15 min, the trichloroacetic acid was aspirated and the cell material solubilized by the addition of 0.5 mL of 0.25 N sodium hydroxide for 15 min. Four hundred and fifty μL of each solubilized sample were transferred to scintillation vials containing 3 mL of Ecolume scintillation cocktail and then counted in a liquid scintillation counter. Final tabulated results were expressed as the percentage of ^3H-thymidine incorporation relative to untreated controls.
(§2) As shown in the figures herein, dose-dependent cytotoxicity was measurable, and in most cases, the IC50 values (concentration of drug conjugate required to reduce ^3H-thymidine incorporation into newly synthesized DNA by 50%) were in the low nanomolar range. […] The following table illustrated data for selected compounds against KB cells and against RAW264.7 cells

RAW264.7 cells = type: cell-based; details: for RAW264.7 Cells Competable with xs folate: excess folic acid
Protocol: as §1, §2

[3] = FIG. 6B, 7B, 8B; M109 tumors, Balb/c mice; 2 μmol/kg TIW two weeks
Protocol: Toxicity as Measured by Weight Loss. The percentage weight change was determined in mice (5 mice/group) on selected days post-tumor inoculation (PTI), compared to controls, and graphed.

SMILES | Bile clearance (% ID) [1] [% ID] | KB Cells Competable with xs folate [2] | RAW264.7 Cells Competable with xs folate (RAW264.7 cells) | other results
CC[C@]1(O)C[C@@H]2CN(CCc3c([nH]c4ccccc34)[C@@](C(=O)OC)(c3cc4c(cc3OC)N(C)[C@H]3[C@@](O)(C(=O)NN)[C@H](O)[C@]5(CC)C=CCN6CC[C@]43[C@@H]65)C2)C1 [DAVLBH, deacetylvinblastine monohydrazide, reference compound] | 58.0 |  |  | 
CNC(=O)[C@H](Cc1cn(CCO[C@@H]2OC(C(=O)O)C(O)[C@H](O)C2O)nn1)NC(=O)CC[C@H](NC(=O)c1ccc(NCc2cnc3nc(N)nc(O)c3n2)cc1)C(=O)O (stereo partly shown) [EC0423] | 3.9 |  |  | 
CC[C@]1(O)C[C@H]2CN(CCc3c([nH]c4ccccc34)[C@@](C(=O)OC)(c3cc4c(cc3OC)N(C)[C@H]3[C@@](O)(C(=O)NNC(=O)OCCSSC[C@H](NC(=O)CCOCCOCCOCCOCCOCCOCCOCCOCCOCCOCCOCCOCCNC(=O)CC[C@H](NC(=O)c5ccc(NCc6cnc7nc(N)nc(O)c7n6)cc5)C(=O)O)C(=O)O)[C@H](O)[C@]5(CC)C=CCN6CC[C@]43[C@@H]65)C2)C1 [EC0409] | 7.9 | Yes |  | 
CO[C@H]1C[C@@H]2CC[C@@H](C)[C@@](O)(O2)C(=O)C(=O)N2CCCC[C@H]2C(=O)O[C@H]([C@H](C)C[C@@H]2CC[C@@H](OCCOC(=O)OCCSSCCC(=O)NC[C@@H]3NC(=O)[C@@H](NC(=O)[C@H](CCC(=O)O)NC(=O)[C@H](CCC(=O)NC[C@H](O)[C@@H](O)[C@H](O)[C@H](O)CO)NC(=O)[C@H](CCC(=O)O)NC(=O)[C@H](CCC(=O)NC[C@H](O)[C@@H](O)[C@H](O)[C@H](O)CO)NC(=O)CC[C@H](NC(=O)c4ccc(NCc5cnc6nc(N)[nH]c(=O)c6n5)cc4)C(=O)O)CCC(=O)NC[C@H](O)[C@@H](O)[C@H](O)[C@H]4COB(O4)[C@H](CC(C)C)NC(=O)[C@H](Cc4ccccc4)NC(=O)c4cnc(cn4)CSSC[C@@H](C(=O)O)NC3=O)[C@H](OC)C2)CC(=O)[C@H](C)/C=C(\C)[C@@H](O)[C@@H](OC)C(=O)[C@H](C)C[C@H](C)/C=C/C=C/C=C/1C [EC0582] |  |  | Yes | 
CC[C@]1(O)C[C@H]2CN(CCc3c([nH]c4ccccc34)[C@@](C(=O)OC)(c3cc4c(cc3OC)N(C)[C@H]3[C@@](O)(C(=O)NNC(=O)OCCSSC[C@H](NC(=O)[C@@H](NC(=O)[C@H](CC(=O)O)NC(=O)[C@@H](NC(=O)[C@H](CC(=O)O)NC(=O)[C@@H](NC(=O)[C@H](CC(=O)O)NC(=O)[C@@H](NC(=O)CC[C@H](NC(=O)c5ccc(NCc6cnc7nc(N)[nH]c(=O)c7n6)cc5)C(=O)O)[C@@H](O)[C@H](O)[C@H](O)CO)[C@@H](O)[C@H](O)[C@H](O)CO)[C@@H](O)[C@H](O)[C@H](O)CO)[C@@H](O)[C@H](O)[C@H](O)CO)C(=O)O)[C@H](O)[C@]5(CC)C=CCN6CC[C@]43[C@@H]65)C2)C1 [EC0434, Tetra-Saccharo-Tris-Asp-Folate Vinblastine Conjugate] ({Pteroyl-γGlu}-[Nle(3R-OH,4S-OH,5R-OH,6-OH)]D[Nle(3R-OH,4S-OH,5R-OH,6-OH)]D[Nle(3R-OH,4S-OH,5R-OH,6-OH)]D[Nle(3R-OH,4S-OH,5R-OH,6-OH)]C(X1)-OH) |  |  |  | percent of total dose in the bile (total DAVLBH biliary excretion) ([1]; iv): 2.8%; gross toxicity (percentage body weight change) [3]: no gross toxicity was observed
COc1ccc(C[C@H]2NC(=O)/C=C/C[C@@H]([C@H](C)[C@@H](OC(=O)OCCSSC[C@H](NC(=O)[C@@H](NC(=O)[C@H](CC(=O)O)NC(=O)[C@@H](NC(=O)[C@H](CC(=O)O)NC(=O)[C@@H](NC(=O)CC[C@H](NC(=O)c3ccc(NCc4cnc5nc(N)[nH]c(=O)c5n4)cc3)C(=O)O)[C@@H](O)[C@H](O)[C@H](O)CO)[C@@H](O)[C@H](O)[C@H](O)CO)[C@@H](O)[C@H](O)[C@H](O)CO)C(=O)O)[C@@H](Cl)c3ccccc3)OC(=O)[C@H](CC(C)C)OC(=O)C(C)(C)CNC2=O)cc1Cl [EC0262] |  | Yes |  | 
Nc1nc(N)c2nc(CNc3ccc(C(=O)N[C@@H](CCC(=O)OCCSSC[C@H](NC(=O)[C@H](CCC(=O)NC[C@H](O)[C@@H](O)[C@H](O)[C@H](O)CO)NC(=O)[C@H](CCC(=O)O)NC(=O)[C@H](CCC(=O)NC[C@H](O)[C@@H](O)[C@H](O)[C@H](O)CO)NC(=O)[C@H](CCC(=O)O)NC(=O)[C@H](CCC(=O)NC[C@H](O)[C@@H](O)[C@H](O)[C@H](O)CO)NC(=O)CC[C@H](NC(=O)c4ccc(NCc5cnc6nc(N)[nH]c(=O)c6n5)cc4)C(=O)O)C(=O)O)C(=O)O)cc3)cnc2n1 [EC0551] |  |  | Yes | IC50 (RAW264.7 cells): 1 nM
CC(=O)O[C@H]1C(=O)[C@@]2(C)[C@H]([C@H](OC(=O)c3ccccc3)[C@]3(O)C[C@H](OC(=O)[C@H](OC(=O)COc4ccc(C(=O)NNC(=O)OCCSSC[C@H](NC(=O)[C@H](CCC(=O)NC[C@H](O)[C@@H](O)[C@H](O)[C@H](O)CO)NC(=O)[C@H](CCC(=O)O)NC(=O)[C@H](CCC(=O)NC[C@H](O)[C@@H](O)[C@H](O)[C@H](O)CO)NC(=O)[C@H](CCC(=O)O)NC(=O)[C@H](CCC(=O)NC[C@H](O)[C@@H](O)[C@H](O)[C@H](O)CO)NC(=O)CC[C@H](NC(=O)c5ccc(NCc6cnc7nc(N)[nH]c(=O)c7n6)cc5)C(=O)O)C(=O)O)cc4)[C@@H](NC(=O)c4ccccc4)c4ccccc4)C(C)=C1C3(C)C)[C@]1(OC(C)=O)CO[C@@H]1C[C@@H]2O [EC0561] |  | Yes |  | 
CO[C@H]1C[C@@H]2CC[C@@H](C)[C@@](O)(O2)C(=O)C(=O)N2CCCC[C@H]2C(=O)O[C@H]([C@H](C)C[C@@H]2CC[C@@H](O)[C@H](OC)C2)CC(=O)[C@H](C)/C=C(\C)[C@@H](OC(=O)OCCSSC[C@H](NC(=O)[C@H](CCC(=O)NC[C@H](O)[C@@H](O)[C@H](O)[C@H](O)CO)NC(=O)[C@H](CCC(=O)O)NC(=O)[C@H](CCC(=O)NC[C@H](O)[C@@H](O)[C@H](O)[C@H](O)CO)NC(=O)[C@H](CCC(=O)O)NC(=O)[C@H](CCC(=O)NC[C@H](O)[C@@H](O)[C@H](O)[C@H](O)CO)NC(=O)CC[C@H](NC(=O)c2ccc(NCc3cnc4nc(N)[nH]c(=O)c4n3)cc2)C(=O)O)C(=O)O)[C@@H](OC)C(=O)[C@H](C)C[C@H](C)/C=C/C=C/C=C/1C [EC0552] |  |  | Yes | 
CCC(C)[C@H](NC(=O)[C@H]1CCCCN1C)C(=O)N(COC(=O)CC(C)C)[C@H](C[C@@H](OC(C)=O)c1nc(C(=O)N[C@@H](Cc2ccc(O)cc2)C[C@H](C)C(=O)NNC(=O)OCSSC[C@H](NC(=O)[C@H](CCC(=O)NC[C@H](O)[C@@H](O)[C@H](O)[C@H](O)CO)NC(=O)[C@H](CCC(=O)O)NC(=O)[C@H](CCC(=O)NC[C@H](O)[C@@H](O)[C@H](O)[C@H](O)CO)NC(=O)[C@H](CCC(=O)O)NC(=O)[C@H](CCC(=O)NC[C@H](O)[C@@H](O)[C@H](O)[C@H](O)CO)NC(=O)CC[C@H](NC(=O)c2ccc(NCc3cnc4nc(N)[nH]c(=O)c4n3)cc2)C(=O)O)C(=O)O)cs1)C(C)C (stereo partly shown) [EC0543] |  | Yes |  | 
CC[C@]1(O)C[C@H]2CN(CCc3c([nH]c4ccccc34)[C@@](C(=O)OC)(c3cc4c(cc3OC)N(C)[C@H]3[C@@](O)(C(=O)NNC(=O)OCCSSC[C@H](NC(=O)[C@@H](NC(=O)[C@@H](NC(=O)[C@H](CC(=O)O)NC(=O)[C@@H](NC(=O)CC[C@H](NC(=O)c5ccc(NCc6cnc7nc(N)[nH]c(=O)c7n6)cc5)C(=O)O)[C@@H](O)[C@H](O)[C@H](O)CO)[C@@H](O)[C@H](O)[C@H](O)CO)[C@@H](O)[C@H](O)[C@H](O)CO)C(=O)O)[C@H](O)[C@]5(CC)C=CCN6CC[C@]43[C@@H]65)C2)C1 [EC0258, Tris-Saccharo-Asp-Folate Vinblastine Conjugate] | 3.2 | Yes |  | 
CO[C@H]1C[C@@H]2CC[C@@H](C)[C@@](O)(O2)C(=O)C(=O)N2CCCC[C@H]2C(=O)O[C@H]([C@H](C)C[C@@H]2CC[C@@H](O)[C@H](OC)C2)CC(=O)[C@H](C)/C=C(\C)[C@@H](OC(=O)OCCSSCCC(=O)NC[C@@H]2NC(=O)[C@@H](NC(=O)[C@H](CCC(=O)O)NC(=O)[C@H](CCC(=O)NC[C@H](O)[C@@H](O)[C@H](O)[C@H](O)CO)NC(=O)[C@H](CCC(=O)O)NC(=O)[C@H](CCC(=O)NC[C@H](O)[C@@H](O)[C@H](O)[C@H](O)CO)NC(=O)CC[C@H](NC(=O)c3ccc(NCc4cnc5nc(N)[nH]c(=O)c5n4)cc3)C(=O)O)CCC(=O)NC[C@H](O)[C@@H](O)[C@H](O)[C@H]3COB(O3)[C@H](CC(C)C)NC(=O)[C@H](Cc3ccccc3)NC(=O)c3cnc(cn3)CSSC[C@@H](C(=O)O)NC2=O)[C@@H](OC)C(=O)[C@H](C)C[C@H](C)/C=C/C=C/C=C/1C [EC0563] |  |  | Yes | 

Reference: patent US20140073761A1, “CONJUGATES CONTAINING HYDROPHILIC SPACER LINKERS” (priority 2007, published 2014)
